The source of these data is patent US20240269298A1, “PHOSPHONYL DERIVATIVE, AND COMPOSITION AND PHARMACEUTICAL APPLICATION THEREOF” (XIZANG HAISCO PHARMACEUTICAL CO., LTD., priority 2021, published 2024).

A word on the IC50: it is the concentration at which inhibition is half-maximal.

Structures are written as SMILES. Read-outs that look alike come from different tables or passages of the source. Bounds are passed on as bounds.

In the test the test system is NCI-H1975 (EGFR-L858R-T790M) cells. As to the kind of experiment: Inhibitory activity on proliferation of NCI-H1975 (EGFR-L858R-T790M) cells (CTG, 72 h). It counts as cell-based. The settings on record: Homo sapiens. As to the method: NCI-H1975 (EGFR-L858R-T790M) and A431 (EGFR-WT) cells were purchased from ATCC and cultured in an incubator at 37° C. with 5% CO2, and the culture mediums were RPMI1640+10% FBS and DMEM+10% FBS, respectively. On the first day, NCI-H1975 (EGFR-L858R-T790M) and A431 (EGFR-WT) cells in the logarithmic phase were collected, and viable cells were counted using an automatic cell analyzer (countstar). The cell suspensions were adjusted with the culture mediums and plated on a 96-well cell culture plate at 1000 cells/well for NCI-H1975 (EGFR-L858R-T790M) cells and at 3000 cells/well for A431 cells. The next day, the culture mediums were aspirated, and 90 μL of fresh culture mediums and 10 μL of the compounds at different concentrations were added to each well, wherein the final concentration of DMSO in each well was 0.1%. The plate was cultured in the incubator at 37° C. with 5% CO2 for 72 hours. After 72 hours of drug treatment, 50 μL of CTG solution (promega, G7572), which was already pre-melted and equilibrated to room temperature, was added to each well, and the mixtures were uniformly mixed for 2 min using a microplate shaker. The plate was placed at room temperature for 10 min, and then […] signal values were measured using a microplate reader (PHERAstar FSX).
Surviving cells % was calculated based on Vsample/Vvehicle control×100%, wherein Vsample was the readout of the drug-treated group, and Vvehicle control was the average value of the vehicle control group. Using the origin 9.2 software and nonlinear regression model, S-shaped dose-survival curves were plotted, and IC50 values were calculated.

The mark [1] stands for this setting: read-out: IC50 (value in brackets).

With `COc1cc(N2CCC(CN3CCN(c4ccc(C(=O)NC5CCC(=O)NC5=O)nc4)CC3)CC2)c(-c2cnn(C)c2)cc1Nc1ncc(Br)c(Nc2ccc(-c3ccccc3)cc2P(C)(C)=O)n1` (stereo not shown) [Compound 64, 5-(4-((1-(4-((5-bromo-4-((3-(dimethylphosphoryl)-[1,1′-biphenyl]-4-yl)amino)pyrimidin-2-yl)amino)-5-methoxy-2-(1-methyl-1H-pyrazol-4-yl)phenyl)piperidin-4-yl)methyl)piperazin-1-yl)-N-(2,6-dioxopiperidin-3-yl)picolinamide], the IC50 is less than 100 nM (read-out: IC50 (class symbol)) and 82 nM under setting [1].

Consider `COc1cc(N2CCN(C3CCN(CC4CCN(c5ccc6c(c5)C(=O)N(C5CCC(=O)NC5=O)C6=O)CC4)CC3)CC2)c(-c2cnn(C)c2)cc1Nc1ncc(Cl)c(Nc2ccc3nccnc3c2P(C)(C)=O)n1` (stereo not shown) [Trifluoroacetate of compound 12, 5-(4-((4-(4-(4-((5-chloro-4-((5-(dimethylphosphoryl)quinoxalin-6-yl)amino)pyrimidin-2-yl)amino)-5-methoxy-2-(1-methyl-1H-pyrazol-4-yl)phenyl)piperazin-1-yl)piperidin-1-yl)methyl)piperidin-1-yl)-2-(2,6-dioxopiperidin-3-yl)isoindoline-1,3-dione], for which the IC50 was less than 100 nM (read-out: IC50 (class symbol)) and 59 nM under setting [1].

As for `COc1cc(N2CCC(CN3CCN(c4ccc(C5CCC(=O)NC5=O)c(F)c4)CC3)CC2)c(-c2cnn(C)c2)cc1Nc1ncc(Cl)c(Nc2ccc(-c3ccccc3)cc2P(C)(C)=O)n1` (stereo not shown) [Compound 156, 3-(4-(4-((1-(4-((5-chloro-4-((3-(dimethylphosphoryl)-[1,1′-biphenyl]-4-yl)amino)pyrimidin-2-yl)amino)-5-methoxy-2-(1-methyl-1H-pyrazol-4-yl)phenyl)piperidin-4-yl)methyl)piperazin-1-yl)-2-fluorophenyl)piperidine-2,6-dione], the IC50 is less than 100 nM (read-out: IC50 (class symbol)) and 64 nM under setting [1].

`COc1cc(N2CCC(CN3CCN(c4ccc(N5CCC(=O)NC5=O)cc4)CC3)CC2)c(-c2cnn(C)c2)cc1Nc1ncc(Cl)c(Nc2ccc(C3CC3)cc2P(C)(C)=O)n1` [Compound 131, 1-(4-(4-((1-(4-((5-chloro-4-((4-cyclopropyl-2-(dimethylphosphoryl)phenyl)amino)pyrimidin-2-yl)amino)-5-methoxy-2-(1-methyl-1H-pyrazol-4-yl)phenyl)piperidin-4-yl)methyl)piperazin-1-yl)phenyl)dihydropyrimidine-2,4(1H,3H)-dione]: the IC50 by setting is: (read-out: IC50 (class symbol)) 100 to 500 nM; under setting [1], 214 nM.

As to `COc1cc(N2CCN(C[C@H]3CCN(c4ccc5c(c4)C(=O)N(C4CCC(=O)NC4=O)C5=O)C3)CC2)c(-c2cnn(C)c2)cc1Nc1ncc(Br)c(Nc2ccccc2P(C)(C)=O)n1` (stereo partly drawn) [Compound 122, 5-((R)-3-((4-(4-((5-bromo-4-((2-(dimethylphosphoryl)phenyl)amino)pyrimidin-2-yl)amino)-5-methoxy-2-(1-methyl-1H-pyrazol-4-yl)phenyl)piperazin-1-yl)methyl)pyrrolidin-1-yl)-2-(2,6-dioxopiperidin-3-yl)isoindoline-1,3-dione], the IC50 runs as follows: (read-out: IC50 (class symbol)) less than 100 nM; under setting [1], 16 nM.

Consider `COc1cc(N2CCC(CN3CCN(c4ccc(C5CCC(=O)NC5=O)c(F)c4)CC3)CC2)c(-c2cnn(C)c2)cc1Nc1ncc(Cl)c(Nc2ccc(C3CC3)cc2P(C)(C)=O)n1` (stereo not shown) [Compound 153, 3-(4-(4-((1-(4-((5-chloro-4-((4-cyclopropyl-2-(dimethylphosphoryl)phenyl)amino)pyrimidin-2-yl)amino)-5-methoxy-2-(1-methyl-1H-pyrazol-4-yl)phenyl)piperidin-4-yl)methyl)piperazin-1-yl)-2-fluorophenyl)piperidine-2,6-dione], for which the IC50 (read-out: IC50 (class symbol)) is less than 100 nM and the IC50 under setting [1] is 73 nM.

For the compound `COc1cc(N2CCC(CN3CCN(c4ccc(N5CCC(=O)NC5=O)cc4)CC3)CC2)c(-c2cnn(C)c2)cc1Nc1ncc(Cl)c(Nc2ccc(-c3ccccc3)cc2P(C)(C)=O)n1` [Compound 136, 1-(4-(4-((1-(4-((5-chloro-4-((3-(dimethylphosphoryl)-[1,1′-biphenyl]-4-yl)amino)pyrimidin-2-yl)amino)-5-methoxy-2-(1-methyl-1H-pyrazol-4-yl)phenyl)piperidin-4-yl)methyl)piperazin-1-yl)phenyl)dihydropyrimidine-2,4(1H,3H)-dione], the IC50 is 100 to 500 nM (read-out: IC50 (class symbol)) and 393 nM under setting [1].

For `COc1cc(N2CCC(N3CCN(CC4CCN(c5cc6c(cc5F)C(=O)N(C5CCC(=O)NC5=O)C6=O)CC4)CC3)CC2)c(-c2cnn(C)c2)cc1Nc1ncc(Br)c(Nc2ccc3nccnc3c2P(C)(C)=O)n1` (stereo not shown) [Compound 29, 5-(4-((4-(1-(4-((5-bromo-4-((5-(dimethylphosphoryl)quinoxalin-6-yl)amino)pyrimidin-2-yl)amino)-5-methoxy-2-(1-methyl-1H-pyrazol-4-yl)phenyl)piperidin-4-yl)piperazin-1-yl)methyl)piperidin-1-yl)-2-(2,6-dioxopiperidin-3-yl)-6-fluoroisoindoline-1,3-dione], the IC50 reads like this: (read-out: IC50 (class symbol)) less than 100 nM; under setting [1], 33 nM.

On to `COc1cc(N2CCC(CN3CCC4(CC3)CCN(c3ccc(C(=O)NC5CCC(=O)NC5=O)nc3)CC4)CC2)c(-c2cnn(C)c2)cc1Nc1ncc(Br)c(Nc2ccc(-c3ccccc3)cc2P(C)(C)=O)n1` (stereo not shown) [Compound 69, 5-(9-((1-(4-((5-bromo-4-((3-(dimethylphosphoryl)-[1,1′-biphenyl]-4-yl)amino)pyrimidin-2-yl)amino)-5-methoxy-2-(1-methyl-1H-pyrazol-4-yl)phenyl)piperidin-4-yl)methyl)-3,9-diazaspiro[5.5]undecan-3-yl)-N-(2,6-dioxopiperidin-3-yl)picolinamide], for which the IC50 runs as follows: (read-out: IC50 (class symbol)) less than 100 nM; under setting [1], 34 nM.

For `COc1cc(N2CCC(N3CCN(CC4CCN(c5cc6c(cc5F)C(=O)N(C5CCC(=O)NC5=O)C6=O)CC4)CC3)CC2)c(-c2cnn(C)c2)cc1Nc1ncc(Cl)c(Nc2ccc3nccnc3c2P(C)(C)=O)n1` (stereo not shown) [Compound 5, 5-(4-((4-(1-(4-((5-chloro-4-((5-(dimethylphosphoryl)quinoxalin-6-yl)amino)pyrimidin-2-yl)amino)-5-methoxy-2-(1-methyl-1H-pyrazol-4-yl)phenyl)piperidin-4-yl)piperazin-1-yl)methyl)piperidin-1-yl)-2-(2,6-dioxopiperidin-3-yl)-6-fluoroisoindoline-1,3-dione], the IC50 (read-out: IC50 (class symbol)) is less than 100 nM and the IC50 under setting [1] came out at 52 nM.

Consider `COc1cc(N2CCC(CN3CCN(c4ccc(C5CCC(=O)NC5=O)cc4)CC3)CC2)c(-c2cnn(C)c2)cc1Nc1ncc(Cl)c(Nc2ccc(-c3ccccc3)cc2P(C)(C)=O)n1` (stereo not shown) [Compound 155, 3-(4-(4-((1-(4-((5-chloro-4-((3-(dimethylphosphoryl)-[1,1′-biphenyl]-4-yl)amino)pyrimidin-2-yl)amino)-5-methoxy-2-(1-methyl-1H-pyrazol-4-yl)phenyl)piperidin-4-yl)methyl)piperazin-1-yl)phenyl)piperidine-2,6-dione], for which the IC50 is, setting by setting: (read-out: IC50 (class symbol)) less than 100 nM; under setting [1], 43 nM.
